Data reported in patent publication US20260217651A1 (priority 2022, published 2026).
Where two headings read alike, the source gives them in different places.

Key:
SD rats [1] = experiment: animal or person; type: in vivo; details: Rattus norvegicus, iv, read-out: Minimal effective analgesic dose(mg/kg)
SD rats [2] = experiment: animal or person; type: in vivo, rat; details: iv; for minimal effective dose: Rattus norvegicus, read-out: Minimal effective anesthetic dose(mg/kg); for Onset time / Righting Reflex Duration / Sedation Duration / Minimal effective anesthetic dose(mg/kg): rat, in vivo

Structure (SMILES)	minimal effective dose (SD rats [1]) [mg/kg]	minimal effective dose (SD rats [2]) [mg/kg]	Onset time (SD rats [2]) [min]	Righting Reflex Duration (SD rats [2]) [min]	Sedation Duration (SD rats [2]) [min]	Minimal effective anesthetic dose(mg/kg) (SD rats [2])
CCOC(=O)N(c1ccc(OC)c(OC)c1)N1CCN(c2cc(C(C)C)c(O)c(C(C)C)c2)CC1 [Cpd-96]	20 to 40	20 to 40	0.13 to 0.75	1.32 to 43.20	86.20 to 295.93	–
CC(C)C(=O)N(c1ccccc1)C1CCN(c2cc(C(C)C)c(O)c(C(C)C)c2)CC1 [Cpd-14]	–	5 to 10	0.48	17.60	42.83	–
CCOC(=O)N(c1ccccc1)N1CCN(c2cc(C(C)C)c(O)c(C(C)C)c2)CC1 [Cpd-51]	–	5 to 10	0.65 to 0.97	2.52 to 14.47	22.27 to 35.75	–
CCOC(=O)N(Cc1cccc(Cl)c1)N1CCN(c2cc(C(C)C)c(O)c(C(C)C)c2)CC1 [Cpd-127]	–	5 to 10	0.55	21.20	71.18	–
COC(=O)CC1CCN(Cc2cc(C(C)C)c(O)c([C@H](C)C3CC3)c2)CC1 [Cpd-77]	–	< 5	1.00 to 1.80	0.67 to 1.95	5.00 to 22.33	–
CC(C)c1cc(N2CCC(C(=O)OC(C)(C)C)CC2)cc([C@H](C)C2CC2)c1O [Cpd-85]	–	–	0.18 to 0.55	1.28 to 4.92	5.05 to 15.13	A (key: A≤5 mg/kg; 5 mg/kg<B≤10 mg/kg; 10 mg/kg<C≤20 mg/kg; 20 mg/kg<D≤40 mg/k; E>40 mg/kg)
COC(=O)CN1CCC(N(CC(=O)OC)c2cc(C(C)C)c(O)c([C@H](C)C3CC3)c2)CC1 [Cpd-87]	–	10 to 20	0.42	1.85	19.32	–
COC(=O)CN1CCN(Cc2cc(C(C)C)c(O)c([C@H](C)C3CC3)c2)CC1 [Cpd-78-1]	–	5 to 10	0.62	2.73	22.58	–
CCOC(=O)C1(c2ccccc2F)CCN(c2cc(C(C)C)c(O)c(C(C)C)c2)CC1 [Cpd-34]	–	10 to 20	0.88	10.28	29.75	–
CCOC(=O)N(c1ccc(OC)c(Br)c1)N1CCN(c2cc(C(C)C)c(O)c(C(C)C)c2)CC1 [Cpd-103]	–	20 to 40	0.15	14.85	107.67	–
COC(=O)CN(C1CC1)C1CCN(c2cc(C(C)C)c(O)c(C(C)C)c2)CC1 [Cpd-8]	–	5 to 10	0.40	7.73	17.93	–
C=C[C@@H](C)c1cc(N2CCN(CC(=O)OC)CC2)cc(C(C)C)c1O [Cpd-89]	–	10 to 20	0.18	0.88	22.78	–
COC(=O)CN1CC=C(c2cc(C(C)C)c(O)c([C@H](C)C3CC3)c2)CC1 [Cpd-86]	–	< 5	0.17 to 0.20	1.15 to 10.33	16.40 to 19.62	–
CC(C)OC(=O)N(c1ccccc1)N1CCN(c2cc(C(C)C)c(O)c(C(C)C)c2)CC1 [Cpd-52]	–	5 to 10	0.52 to 0.98	13.92 to 16.42	28.53 to 94.30	–
CCOC(=O)C1(c2cccc(Cl)c2)CCN(c2cc(C(C)C)c(O)c(C(C)C)c2)CC1 [Cpd-37]	–	5 to 10	2.63	0.65	21.73	–
CCOC(=O)N(c1cccc(OC)c1)N1CCN(c2cc(C(C)C)c(O)c([C@H](C)C3CC3)c2)CC1 [Cpd-71]	–	10 to 20	0.55	17.52	37.65	–
CCOC(=O)N(Cc1ccoc1)N1CCN(c2cc(C(C)C)c(O)c(C(C)C)c2)CC1 [Cpd-126]	–	10 to 20	0.42	14.90	21.85	–
CCC(=O)N(c1ccccc1)C1CCN(c2cc(C(C)C)c(O)c([C@H](C)C3CC3)c2)CC1 [Cpd-18]	–	5 to 10	0.20 to 0.57	5.55 to 20.30	26.77 to 47.53	–
CC(C)c1cc(N2CCC(C(=O)OC(C)(C)C)CC2)cc([C@H](C)C2CC2)c1O [Cpd-85-1]	–	< 5	0.40 to 1.33	1.38 to 29.00	20.97 to 44.48	–
COC(=O)N(c1ccccc1)C1CCN(c2cc(C(C)C)c(O)c(C(C)C)c2)CC1 [Cpd-3]	–	< 5	0.20 to 0.67	5.83 to 22.20	24.65 to 38.02	–

Structure (SMILES)	minimal effective dose (SD rats [1]) [mg/kg]	minimal effective dose (SD rats [2]) [mg/kg]	Onset time (SD rats [2]) [min]	Righting Reflex Duration (SD rats [2]) [min]	Sedation Duration (SD rats [2]) [min]	Minimal effective anesthetic dose(mg/kg) (SD rats [2])
COC(=O)C1CCN(c2cc(C(C)C)c(O)c([C@H](C)C3CC3)c2)CC1 [Cpd-84]	–	–	0.30 to 0.75	1.10 to 17.23	18.08 to 35.02	A (key: A≤5 mg/kg; 5 mg/kg<B≤10 mg/kg; 10 mg/kg<C≤20 mg/kg; 20 mg/kg<D≤40 mg/k; E>40 mg/kg)
CCOC(=O)N(c1ccc(OC)c(F)c1)N1CCN(c2cc(C(C)C)c(O)c(C(C)C)c2)CC1 [Cpd-101]	–	10 to 20	0.70 to 0.73	2.05 to 2.58	38.73 to 57.17	–
CCOC(=O)C1(c2ccccn2)CCN(c2cc(C(C)C)c(O)c(C(C)C)c2)CC1.Cl [Cpd-23]	–	10 to 20	0.53	13.95	41.02	–
CCOC(=O)N(c1cccc(C)c1)N1CCN(c2cc(C(C)C)c(O)c(C(C)C)c2)CC1 [Cpd-62]	–	10 to 20	1.15 to 2.15	1.22 to 17.28	55.48 to 85.02	–
CC(C)c1cc(N2CCC(CC(=O)OC(C)(C)C)CC2)cc([C@H](C)C2CC2)c1O [Cpd-81]	–	< 5	0.18 to 0.75	9.28 to 40.37	27.22 to 57.86	–
CC(C)OC(=O)N(c1ccccc1)C1CCN(c2cc(C(C)C)c(O)c(C(C)C)c2)CC1 [Cpd-15]	–	5 to 10	0.67	16.28	29.90	–
CC(=O)N(c1ccccc1)C1CCN(c2cc(C(C)C)c(O)c(C(C)C)c2)CC1 [Cpd-12]	–	10 to 20	0.45	6.85	55.12	–
COC(=O)CC1CCN(c2cc(C(C)C)c(O)c([C@H](C)C3CC3)c2)CC1 [Cpd-80]	–	< 5	0.17 to 0.97	1.50 to 12.97	10.17 to 28.53	–
CCOC(=O)N(c1ccc(C)cc1)N1CCN(c2cc(C(C)C)c(O)c([C@H](C)C3CC3)c2)CC1 [Cpd-74]	–	20 to 40	0.50	26.28	69.23	–
COC(=O)C1CCN(c2cc(C(C)C)c(O)c([C@H](C)C3CC3)c2)CC1 [Cpd-84-1]	–	< 5	0.43 to 0.77	0.77 to 4.62	5.72 to 10.28	–
CCOC(=O)N(c1cccc(C#N)c1)N1CCN(c2cc(C(C)C)c(O)c(C(C)C)c2)CC1 [Cpd-95]	–	20 to 40	0.72	13.75	54.33	–
CCOC(=O)N(c1ccccc1)N1CCN(c2cc(C(C)C)c(O)c([C@H](C)C3CC3)c2)CC1 [Cpd-59]	–	10 to 20	0.37 to 0.85	21.18 to 24.15	37.27 to 47.68	–
CCC(=O)N(c1cc(C(C)C)c(O)c([C@H](C)C2CC2)c1)N1CCN(CCC(=O)OC)CC1 [Cpd-50]	–	20 to 40	1.03	1.47	66.48	–
COC(=O)CN(c1ccccc1)C1CCN(c2cc(C(C)C)c(O)c(C(C)C)c2)CC1 [Cpd-10]	–	5 to 10	0.42 to 0.45	6.47 to 27.50	47.22 to 66.70	–
CCOC(=O)N(c1cccc(Cl)c1)N1CCN(c2cc(C(C)C)c(O)c([C@@H](C)C3CC3)c2)CC1 [Cpd-106]	–	10 to 20	1.55 to 1.60	3.35 to 24.10	98.82 to 103.67	–
COC(=O)CCC1CCN(c2cc(C(C)C)c(O)c([C@H](C)C3CC3)c2)CC1 [Cpd-82]	–	< 5	0.17 to 0.52	0.87 to 3.42	3.67 to 13.02	–
CCC(=O)N(CC1CCN(c2cc(C(C)C)c(O)c(C(C)C)c2)CC1)c1ccccc1 [Cpd-32]	–	5 to 10	0.52	2.67	19.68	–
CCC(=O)N(C1CC1)C1CCN(c2cc(C(C)C)c(O)c(C(C)C)c2)CC1 [Cpd-5]	–	5 to 10	0.45	6.40	17.12	–
CCOC(=O)C1(c2ccc(F)cc2F)CCN(c2cc(C(C)C)c(O)c(C(C)C)c2)CC1 [Cpd-27]	–	20 to 40	1.47	36.80	67.40	–
CCOC(=O)N(c1ccc(F)cc1)N1CCN(c2cc(C(C)C)c(O)c(C(C)C)c2)CC1 [Cpd-64]	–	10 to 20	0.43 to 0.47	3.70 to 7.22	26.92 to 42.58	–
